{"source": "ChEMBL document CHEMBL5149982", "about": "“Development of Potent NEDD8-Activating Enzyme Inhibitors Bearing a Pyrimidotriazole Scaffold” (J Med Chem, 2021)", "key": {"HCT-116 [1]": {"tested_on": "HCT-116", "experiment": "Antiproliferative activity against human HCT-116 cells assessed as cell growth inhibition by sulforhodamine B assay", "type": "functional, cell-based"}, "[2]": {"biological_target": "Voltage-gated inwardly rectifying potassium channel KCNH2 (Homo sapiens, UniProt Q12809)", "sequence (Q12809 whole entry)": "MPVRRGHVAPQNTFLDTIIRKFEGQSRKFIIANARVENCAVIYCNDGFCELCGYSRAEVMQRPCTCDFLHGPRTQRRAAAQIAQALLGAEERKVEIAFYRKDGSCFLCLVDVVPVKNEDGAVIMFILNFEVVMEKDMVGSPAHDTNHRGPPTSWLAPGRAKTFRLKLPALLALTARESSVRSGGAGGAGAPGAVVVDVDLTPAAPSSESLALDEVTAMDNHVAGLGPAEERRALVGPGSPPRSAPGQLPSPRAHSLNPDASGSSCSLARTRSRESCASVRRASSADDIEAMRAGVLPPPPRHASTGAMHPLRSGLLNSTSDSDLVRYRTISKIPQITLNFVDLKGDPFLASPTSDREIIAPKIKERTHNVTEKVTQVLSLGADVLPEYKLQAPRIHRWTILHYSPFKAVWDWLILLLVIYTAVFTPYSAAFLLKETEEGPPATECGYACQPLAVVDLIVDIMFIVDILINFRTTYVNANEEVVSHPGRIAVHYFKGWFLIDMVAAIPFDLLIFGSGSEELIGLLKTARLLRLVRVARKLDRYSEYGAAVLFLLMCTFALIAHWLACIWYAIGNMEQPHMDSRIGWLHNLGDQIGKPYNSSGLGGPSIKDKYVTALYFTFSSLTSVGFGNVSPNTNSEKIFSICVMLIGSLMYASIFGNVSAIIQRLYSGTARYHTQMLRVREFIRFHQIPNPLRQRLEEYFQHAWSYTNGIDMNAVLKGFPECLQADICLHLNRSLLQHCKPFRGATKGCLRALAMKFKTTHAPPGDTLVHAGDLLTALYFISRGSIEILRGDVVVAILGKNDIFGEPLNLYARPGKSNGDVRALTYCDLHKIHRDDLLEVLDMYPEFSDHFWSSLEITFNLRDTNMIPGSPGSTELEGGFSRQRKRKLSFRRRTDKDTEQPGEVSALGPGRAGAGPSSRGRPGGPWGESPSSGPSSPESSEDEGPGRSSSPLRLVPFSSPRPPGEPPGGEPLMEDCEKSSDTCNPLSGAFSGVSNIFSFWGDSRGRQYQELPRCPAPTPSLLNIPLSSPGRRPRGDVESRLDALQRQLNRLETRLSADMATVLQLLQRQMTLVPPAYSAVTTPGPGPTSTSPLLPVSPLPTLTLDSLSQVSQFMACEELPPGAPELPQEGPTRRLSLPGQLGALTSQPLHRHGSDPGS", "experiment": "Inhibition of hERG channel", "type": "toxicity"}, "[3]": {"experiment": "Half life in Sprague-Dawley rat at 1 mg/kg, iv", "type": "ADME, organism-based", "conditions": "in vivo"}, "[4]": {"experiment": "AUClast in Sprague-Dawley rat at 1 mg/kg, iv", "type": "ADME, organism-based", "design": "time 0 - last, dose 1 mg/kg, route iv", "conditions": "in vivo"}, "[5]": {"experiment": "Observed AUCinfinity in Sprague-Dawley rat at 1 mg/kg, iv", "type": "ADME, organism-based", "design": "time infinity, dose 1 mg/kg, route iv", "conditions": "in vivo"}, "[6]": {"experiment": "Clearance in Sprague-Dawley rat at 1 mg/kg, iv", "type": "ADME, organism-based", "conditions": "in vivo"}, "[7]": {"experiment": "Observed MRTinfinity in Sprague-Dawley rat at 1 mg/kg, iv", "type": "ADME, organism-based", "conditions": "in vivo"}, "[8]": {"experiment": "Volume of distribution at steady state in Sprague-Dawley rat at 1 mg/kg, iv", "type": "ADME, organism-based", "conditions": "in vivo, read-out: Vdss"}, "[9]": {"biological_target": "T1, Serine/threonine-protein kinase TAO1 (Homo sapiens) (UniProt Q7L7X3)", "T1 sequence (whole entry)": "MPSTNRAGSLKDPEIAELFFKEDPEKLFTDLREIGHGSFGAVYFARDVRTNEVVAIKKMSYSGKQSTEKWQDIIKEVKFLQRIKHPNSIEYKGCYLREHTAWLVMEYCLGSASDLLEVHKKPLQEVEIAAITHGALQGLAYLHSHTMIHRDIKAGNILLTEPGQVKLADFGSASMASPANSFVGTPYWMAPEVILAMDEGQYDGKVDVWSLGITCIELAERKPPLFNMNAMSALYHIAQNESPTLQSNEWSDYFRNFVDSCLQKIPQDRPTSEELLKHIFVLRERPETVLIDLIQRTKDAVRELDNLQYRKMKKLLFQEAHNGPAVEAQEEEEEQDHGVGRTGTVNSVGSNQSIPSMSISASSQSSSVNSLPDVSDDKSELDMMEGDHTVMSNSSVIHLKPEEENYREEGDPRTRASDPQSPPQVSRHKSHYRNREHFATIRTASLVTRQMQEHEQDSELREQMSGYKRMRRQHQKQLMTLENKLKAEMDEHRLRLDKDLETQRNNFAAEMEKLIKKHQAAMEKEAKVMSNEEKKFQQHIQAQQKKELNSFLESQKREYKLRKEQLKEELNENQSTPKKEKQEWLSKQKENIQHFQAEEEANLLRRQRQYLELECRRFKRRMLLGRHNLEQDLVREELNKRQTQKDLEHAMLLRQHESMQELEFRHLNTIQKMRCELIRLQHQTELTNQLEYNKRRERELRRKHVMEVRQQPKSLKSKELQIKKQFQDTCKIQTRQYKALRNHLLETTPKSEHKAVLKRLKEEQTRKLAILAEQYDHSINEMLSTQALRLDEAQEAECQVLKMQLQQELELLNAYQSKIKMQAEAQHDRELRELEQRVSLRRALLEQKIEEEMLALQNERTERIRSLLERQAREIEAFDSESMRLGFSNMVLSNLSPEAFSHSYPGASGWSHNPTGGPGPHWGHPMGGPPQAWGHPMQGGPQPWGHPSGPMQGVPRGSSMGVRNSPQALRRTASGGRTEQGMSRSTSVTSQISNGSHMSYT", "experiment": "Inhibition of human partial length wild type TAOK1 at 1 uM by Kinomescan method relative to control"}, "[10]": {"biological_target": "T1, Serine/threonine-protein kinase TAO1 (Homo sapiens)", "experiment": "Inhibition of human partial length wild type TAOK1 by measuring selectivity score at 1 uM by Kinomescan method relative to control"}, "[11]": {"experiment": "Inhibition of UAE (unknown origin) […] assessed as decrease in UbcH10-Ub adduct formation incubated for 2 hrs in presence of L-glutathione and ATP by HTRF assay", "design": "species or system Homo sapiens"}, "MV4-11": {"tested_on": "MV4-11", "experiment": "Antiproliferative activity against human MV4-11 cells assessed as cell growth inhibition measured after 72 hrs by SRB assay", "type": "functional, cell-based", "conditions": "MV4-11, 72 h"}, "THP-1": {"tested_on": "THP-1", "experiment": "Antiproliferative activity against human THP-1 cells assessed as cell growth inhibition measured after 72 hrs by SRB assay", "type": "functional, cell-based", "conditions": "THP-1, 72 h"}, "Jurkat": {"tested_on": "Jurkat", "experiment": "Antiproliferative activity against human Jurkat cells assessed as cell growth inhibition measured after 72 hrs by SRB assay", "type": "functional, cell-based"}, "HCT-116 [12]": {"tested_on": "HCT-116", "experiment": "Antiproliferative activity against human HCT-116 cells assessed as cell growth inhibition measured after 72 hrs by SRB assay", "type": "functional, cell-based", "conditions": "HCT-116, 72 h"}, "HuTu80": {"tested_on": "HuTu80", "experiment": "Antiproliferative activity against human HuTu80 cells assessed as cell growth inhibition measured after 72 hrs by SRB assay", "type": "functional, cell-based", "conditions": "HuTu80, 72 h"}, "RKO": {"tested_on": "RKO", "experiment": "Antiproliferative activity against human RKO cells assessed as cell growth inhibition measured after 72 hrs by SRB assay", "type": "functional, cell-based"}, "HT-29": {"tested_on": "HT-29", "experiment": "Antiproliferative activity against human HT-29 cells assessed as cell growth inhibition measured after 72 hrs by SRB assay", "type": "functional, cell-based", "conditions": "HT-29, 72 h"}, "LNCaP-Clone-FGC": {"tested_on": "LNCaP-Clone-FGC", "experiment": "Antiproliferative activity against human LNCaP-Clone-FGC cells assessed as cell growth inhibition measured after 72 hrs by SRB assay", "type": "functional, cell-based"}, "DU-145": {"tested_on": "DU-145", "experiment": "Antiproliferative activity against human DU-145 cells assessed as cell growth inhibition measured after 72 hrs by SRB assay", "type": "functional, cell-based", "conditions": "DU-145, 72 h"}, "CAPAN-1": {"tested_on": "CAPAN-1", "experiment": "Antiproliferative activity against human CAPAN-1 cells assessed as cell growth inhibition measured after 72 hrs by SRB assay", "type": "functional, cell-based", "conditions": "CAPAN-1, 72 h"}, "HCT-116 [13]": {"tested_on": "HCT-116", "experiment": "Antitumor activity against human HCT-116 cells xenografted in nude mouse assessed as reduction in tumor growth at 60 mg/kg, sc bid administered at 5 on/5 off/8 for 18 days", "type": "functional", "conditions": "time 18 day"}, "[14]": {"experiment": "Toxicity in nude mouse xenografted with human HCT-116 cells assessed as effect on body weight at 60 mg/kg, sc bid administered at 5 on/5 off/8 for 18 days", "type": "organism-based", "conditions": "in vivo, 432 h, time 18 day"}}}
{"smiles": "NS(=O)(=O)OC[C@@H]1C[C@@H](n2ccc3c(N[C@H]4CCc5ccccc54)ncnc32)C[C@@H]1O", "note": "[PEVONEDISTAT]", "values": [{"measurement": "IC50", "setting": "HCT-116 [1]", "result": 33.9, "unit": "nM"}, {"measurement": "IC50", "setting": "[2]", "result": "> 40000", "unit": "nM"}, {"measurement": "half-life", "setting": "[3]", "result": 1.36, "unit": "h"}, {"measurement": "AUC(0-t)", "setting": "[4]", "result": 1330, "unit": "ng·h/mL"}, {"measurement": "AUC(0-inf)", "setting": "[5]", "result": 1340, "unit": "ng·h/mL"}, {"measurement": "clearance", "setting": "[6]", "result": 16.5, "unit": "mL/min/kg"}, {"measurement": "MRT inf", "setting": "[7]", "result": 1.9, "unit": "h"}, {"measurement": "Vd", "setting": "[8]", "result": 1.63, "unit": "L/kg"}, {"measurement": "inhibition", "setting": "[9]", "result": 35, "unit": "%"}, {"measurement": "Activity", "setting": "[10]", "result": 0.002}, {"measurement": "IC50", "setting": "[11]", "result": 3.72, "unit": "nM"}, {"measurement": "IC50", "setting": "MV4-11", "result": 107, "unit": "nM"}, {"measurement": "IC50", "setting": "THP-1", "result": 115, "unit": "nM"}, {"measurement": "IC50", "setting": "Jurkat", "result": 152, "unit": "nM"}, {"measurement": "IC50", "setting": "HCT-116 [12]", "result": 36.2, "unit": "nM"}, {"measurement": "IC50", "setting": "HuTu80", "result": 42.6, "unit": "nM"}, {"measurement": "IC50", "setting": "RKO", "result": 166, "unit": "nM"}, {"measurement": "IC50", "setting": "HT-29", "result": 484, "unit": "nM"}, {"measurement": "IC50", "setting": "LNCaP-Clone-FGC", "result": 64.6, "unit": "nM"}, {"measurement": "IC50", "setting": "DU-145", "result": 201, "unit": "nM"}, {"measurement": "IC50", "setting": "CAPAN-1", "result": 101, "unit": "nM"}, {"measurement": "T/C", "setting": "HCT-116 [13]", "result": 0.1}, {"measurement": "Activity", "setting": "[14]", "result": "Non-Toxic"}]}
